Assay results from publication PMC12384620, “Hit-to-Lead Studies of Pyrazinylpiperazines against Visceral Leishmaniasis: Pharmacokinetic Profile and In Vivo Efficacy of Potent Compounds against Leishmania infantum” (ACS Pharmacology & Translational Science, 2025).

Assays:
[1] = PAMPA gastrointestinal tract permeability; type: in vitro ADME; conditions: for Papp at 8 h, 0.5 mM: PAMPA-GI, read-out: GI Pe
Description: A 10 mM solution of each compound in DMSO was prepared and subsequently homogenized in a 5 mL flask with 4.75 mL PBS (pH 6.6) (10 mM). […] 180 μL of a PBS (pH 7.4)/DMSO (95:5) solution were then added to the wells of a 96-well receiver plate, and 5 μL of a L-α-phosphatidylcholine solution (20 mg/mL in dodecane) to the wells of a 96-well donor plate. After 5 min, 180 μL of the solutions containing each compound were added to the wells of the donor plate, in triplicate, and the donor plate was carefully placed over the receiver plate in a “sandwich-like” system, which was left stirring (50 rpm) for 8 h at rt in a sealed vessel containing 10 mL PBS (pH 7.4). Afterward, the donor plate was removed, and the content of the receiver plate was transferred to a UV reading plate, which was read using a microplate reader (SpectraMax 5 – Molecular Devices). A reference sample for the internal correction of the microplate reader was prepared using 180 μL of the PBS (pH 7.4)/DMSO (95:5) solution (adapted from refs and ). The optical density values obtained from the content of the receiver plate were compared with the ones obtained from readings performed with the initial solutions containing each compound, before their addition to the donor plate. […] The optical density values from the receptor plate were compared to those from experimental controls to determine the F a value for each compound, using Microsoft Excel.

[2] = Metabolic stability in mouse liver microsomes; type: in vitro ADME; conditions: pH 7.4, MLM, with NADPH cofactor; for microsomal CLint at 5 μM: read-out: Clint, intrinsic clearance; for half-life at 5 μM: read-out: t1/2, microsomal half-life
Description: To a microcentrifuge tube was added 1 mg/mL Mouse Liver Microsome (MLM), a NADPH generating system consisting of 1 mM NADP+, 1.5 mM MgCl2, 3.5 mM glucose-6-phosphate and 0.5 U/mL glucose-6-phosphate dehydrogenase, and phosphate buffer (pH 7.4) in a sufficient amount for a total volume of […]. After a 15 min preincubation at 37 °C in a water bath, the enzymatic reactions were started by adding 2 μL of a […] stock solution of each compound to be assessed, reaching a final concentration of 5 μM in the tested compound. , The samples were further incubated at 37 °C under stirring (30 rpm) for predetermined periods (0, 15, 30, 45, and 60 min), and 500 μL chilled MeOH and 500 μL chilled acetonitrile were added before the samples were homogenized and left standing in an ice bath to accelerate protein precipitation. The resulting mixture was centrifugated at 13000 rpm for 15 min at 4 °C, the organic layer was extracted and 2 μL internal standard (clonazepam 5 μM) was added. Finally, the samples were filtered through a PVDF filter (Millex 0.22 μm x 13 mm) and analyzed by HPLC-PDA. ,

L. infantum = test: Antileishmanial activity against L. infantum amastigotes in THP-1 macrophages; type: cell-based; conditions: Leishmania infantum; growth of L. infantum in THP-1 macrophages, 72 h
Description: The in vitro anti-L. infantum activity (IC50) of each compound was evaluated on THP-1 cells (human leukemia monocytic cell line) infected with L. infantum promastigotes, and the in vitro cytotoxicity (CC50) was determined over the THP-1 cell line. The selectivity index (SI) was calculated as the ratio of the CC50 value determined in the cytotoxicity assay, divided by the IC50 value determined in the antileishmanial activity assay.
Cells derived from the human monocytic strain THP-1 were cultured in complete Rowell Park Memorial Institute (RPMI)-1640 medium (supplemented with 10% fetal bovine serum, 100 U/mL penicillin, and 100 μg/mL streptomycin). Monocytes were differentiated into macrophages by the addition of 20 ng/mL phorbol myristate acetate (PMA). After 72 h, the macrophages (5 × 10^4), in black 96-well microtiter plates (Corning Incorporated, Corning, NY), were infected with Leishmania (Leishmania) infantum (MHOM/BR/1974/PP75) promastigotes transfected with gene tdTomato, on the second day of the stationary phase (20 parasites per macrophage) for 4 h. […] The IC50 values were determined by nonlinear regression using a variable slope model (log(concentration) vs growth inhibition) with the GraphPadPrism v8.2.0 (CA, USA) software. Controls with uninfected cells, untreated infected cells, and infected cells treated with amphotericin B at 0.25 μM (positive control) or DMSO 1% were used. Quadruplicates were run on the same plate, and the experiments were repeated at least once.

[3] = PAMPA blood-brain barrier permeability; type: in vitro ADME; conditions: for BBB permeation class: PAMPA-BBB classification; for Papp at 0.2 mg/mL: PAMPA-BBB, pH 7.4, read-out: BBB Pe
Description: One mg of each compound was solubilized in ethanol (1 mL) in a 5 mL flask, and an additional 500 μL ethanol and 3.5 mL PBS buffer (pH 7.4) were added to this solution. […] 180 μL of a PBS (pH 7.4)/ethanol (70:30) solution were then added to the wells of a 96-well receiver plate, and 5 μL of a porcine brain lipid solution (20 mg/mL in dodecane) to the wells of a 96-well donor plate. […] Afterward, the donor plate was removed, and the content of the receiver plate was transferred to a UV reading plate, which was read using a microplate reader (SpectraMax 5 – Molecular Devices). A reference sample for the internal correction of the microplate reader was prepared using 180 μL of the PBS (pH 7.4)/ethanol (70:30) solution (adapted from ref ). The optical density values obtained from the content of the receiver plate were compared with the ones obtained from readings performed with the initial solutions containing each compound, before their addition to the donor plate. […] The optical density values for the experimental controls were used to determine the equation of the linear regression (optical density vs P e ), which allowed the determination of the P e value of each compound from the optical density values obtained from the receiver plate, using an in-house Microsoft Excel spreadsheet.

L. braziliensis = test: Inhibition of growth of L. braziliensis in THP-1 macrophages; type: cell-based; conditions: Leishmania braziliensis
Text: 1 In Vitro Antileishmanial Potency, Selectivity Index, and ADME Properties of Compounds 1 – 6 | column: L. braziliensis IC50 (μM)^b (SI)^b

L. infantum::tdTomato = type: in vivo, mouse; conditions: 500 mg/kg/day i.p., 10 days
Description: BALB/c mice (male, 6 to 8 weeks old, 18 to 20 g) were inoculated intravenously (tail vein) with 2 × 10^7 late-log-phase L. infantum promastigotes from Li::tdTomato lines, and randomly assigned into one of the four treatment groups (six mice per group). After 7 days of infection, […] was administered intraperitoneally in a single dose 500 mg/kg/day meglumine antimoniate (Glucantime, Sanofi Medley), both groups treated with 2 received two daily intraperitoneal injections totaling either 50 mg/kg/day or 100 mg/kg/day of 2, and the control group was administered the vehicle solution. For the intraperitoneal injection, 2 was formulated as follows: a stock solution of 2 in DMSO (100 mg/mL) was prepared daily, and a solution of 70% PBS1X, 20% PEG 400 (Polyethylene Glycol 400, Sigma-Aldrich), 0.16% Tween 80 and 10% of 2 (from the stock solution) was prepared. The control group was also administered this solution, replacing 2 with 10% DMSO. All mice were euthanized 3 days after the end of the treatment, and the liver and spleen of each animal were collected.
The number of viable parasites in each organ was determined using a quantitative limiting dilution assay. Briefly, the organs were macerated using an Ultra-Turrax disperser (IKA-Werke GmbH & Co. KG., Staufen, Germany), and a tissue homogenate was obtained with 1 mL of M199 medium. Each tissue homogenate was sequentially diluted (10-fold) in 96-well flat-bottom microtiter black plates and incubated at 26 °C for 10 days. The wells containing motile promastigotes were identified with an inverted microscope (Axiovert 25, Zeiss), and the parasite burden was determined from the highest dilution at which promastigotes had grown after 10 days of incubation.

[4] = tested on: L. infantum promastigotes; test: Flow cytometric cell cycle analysis (PI); type: cell-based, Leishmania infantum; conditions: 24 h, 0.5x, 1x, 2x IC50, PI
Description: Then, the cells were collected, washed twice with 1 × PBS, and fixed in 70% ethanol at 4 °C for 24 h. The fixed parasites were then washed with 1 × PBS and the pellet was treated with 500 μL of RNase A (20 mg/mL) and incubated at 37 °C for 1 h. Subsequently, the parasites were stained with 10 μg/mL propidium iodide (PI) in the dark for 20 min. Cell cycle distribution, determining the percentage of cells in G0, G1, S, and G2/M phases, was analyzed using an Accuri C5 BD flow cytometer. The histograms presented are representative of results obtained from three independent experiments.

[5] = tested on: L. infantum::tdTomato intracellular amastigotes; test: Synergism between 2 and Sb^III against intracellular L. infantum amastigotes; type: cell-based, Leishmania infantum; conditions: compounds tested separately, 72 h; read-out: IC50 against intracellular amastigotes of L. infantum
Description: Cells derived from the human monocytic strain THP-1 were cultured in complete Rowell Park Memorial Institute (RPMI)-1640 medium (supplemented with 10% fetal bovine serum, 100 U/mL penicillin, and 100 μg/mL streptomycin). Monocytes were differentiated into macrophages by the addition of 20 ng/mL phorbol myristate acetate (PMA). After 72 h, the macrophages (5 × 10^4), in black 96-well microtiter plates (Corning Incorporated, Corning, NY), were infected with Leishmania (Leishmania) infantum (MHOM/BR/1974/PP75) promastigotes expressing red fluorescence protein on the second day of the stationary phase (20 parasites per macrophage) for 4 h. […] To investigate the possibility of synergism between Sb^III and compound 2, […] different concentrations of these drugs were used (1.0, 0.5, 0.2, 0.1, and 0.05 μg/mL), the solutions of Sb^III and 2 being prepared and diluted the day of the assay. The compounds were tested separately and in combination. […] The EC50 values were determined by nonlinear regression using a Variable slope model (log(concentration) vs growth inhibition) with the GraphPadPrism v8.2.0 (CA, USA) software. By normalizing the data as a fractional response, it was possible to perform the calculation using a Bayesian model. The results were compared to each other to determine whether the combination of compounds has a synergistic, antagonistic or additive effect. Controls with uninfected cells, untreated infected cells, infected cells treated with amphotericin B at 0.25 μM (positive control) or DMSO 1% were used. Quadruplicates were run on the same plate, and the experiments were repeated at least once.

Compound | Fa, fraction absorbed (GI) [1] [%] | microsomal CLint at 5 μM [2] [µL/min/mg] | half-life at 5 μM [2] [h] | Papp at 8 h, 0.5 mM [1] [nm/s] | IC50 (L. infantum) [µM] | BBB permeation class [3] | Papp at 0.2 mg/mL [3] [nm/s] | IC50 (L. braziliensis) [µM] | parasite burden in spleen and liver (L. infantum::tdTomato) | effect on cell cycle progression [4] | IC50 [5] [µM]
CC(C)NCC(O)COc1ccc(CC(N)=O)cc1 (stereo not drawn) [Atenolol, reference compound] | 1.70 |  |  |  |  |  |  |  |  |  | 
O=C(c1cccc(O)c1O)N1CCN(c2cnccn2)CC1 [Compound 6, (2,3-Dihydroxyphenyl)(4-(pyrazin-2-yl)piperazin-1-yl)methanone] | 86.26 | 4.2 | 0.688 | 52.2 | 2.8 ± 1.1 | CNS+ (CNS+: high BBB permeation, P e (10^–6 cm/s) > 4.0) | 45.1 | 0.2 ± 0.2 |  |  | 
COc1ccc(C(=O)N2CCN(c3cnccn3)CC2)cc1 [Compound 3, (4-Methoxyphenyl)(4-(pyrazin-2-yl)piperazin-1-yl)methanone] | 99.90 | 0.925 | 3.12 | 182 | 4.5 ± 0.7 | CNS± (CNS±: uncertain BBB permeation, 2.0 < P e (10^–6 cm/s) < 4.0) | 22.1 | 10.1 ± 2.8 |  |  | 
meglumine antimoniate [reference compound] |  |  |  |  |  |  |  |  | almost completely eradicated |  | 
C[C@@H]1[C@H](O)[C@@H](C)/C=C/C=C/C=C/C=C/C=C/C=C/C=C/[C@H](O[C@@H]2O[C@H](C)[C@@H](O)[C@H](N)[C@@H]2O)C[C@@H]2O[C@](O)(C[C@@H](O)C[C@@H](O)[C@H](O)CC[C@@H](O)C[C@@H](O)CC(=O)O[C@H]1C)C[C@H](O)[C@H]2C(=O)O [AmB, Amphotericin B, reference compound] |  |  |  |  | 0.3 |  |  | 0.1 |  |  | 
CCCCCCCCCCCCCCCCOP(=O)([O-])OCC[N+](C)(C)C [Miltefosine, miltefosine, reference compound] |  |  |  |  |  |  |  |  |  | same pattern of cell cycle arrest | 
O=C(c1ccc2cc(O)ccc2c1)N1CCN(c2cnccn2)CC1 [Compound 5, (6-Hydroxynaphthalen-2-yl)(4-(pyrazin-2-yl)piperazin-1-yl)methanone] | 45.70 | 0.8 | 3.61 | 16.1 | 3.3 ± 2.7 |  | 9.6 | 2.6 ± 0.2 |  |  | 
[Sb+3] [Sb^III, reference compound] |  |  |  |  |  |  |  |  |  |  | 2.4 ± 0.47
Nc1ccc(C(=O)N2CCN(c3cnccn3)CC2)cn1 [Compound 4, (6-Aminopyridin-3-yl)(4-(pyrazin-2-yl)piperazin-1-yl)methanone] | 99.91 | 0.675 | 4.28 | 184 | 5.1 ± 2.1 |  | 10.2 | 11.9 ± 1.1 |  |  | 
